From patent EP4722207A1, “OXOISOINDOLINYL-SUBSTITUTED TETRAHYDROPYRIMIDINEDIONE DERIVATIVE AND USE THEREOF” (Gluetacs Therapeutics (Shanghai) Co., Ltd., priority 2023, dated 2024)

Legend:
Assay type in all cases: cell-based
Settings in all cases: compounds at 50 nM and 500 nM, 24 hours
CK1α = target: T1, CK1α (Homo sapiens, UniProt P48729+Q96SW2); test: Western-blot assay, substrate protein degradation in hPBMCs: CK1α
T1 construct: effects of the compounds of the present disclosure on the expression of target proteins in cells; endogenous in cells; host or cells: human PBMCs (hPBMCs)

IKZF3 = target: T2, IKZF3 (Homo sapiens, UniProt Q96SW2+Q9UKT9); test: Western-blot assay, substrate protein degradation in hPBMCs: IKZF3
T2 construct: effects of the compounds of the present disclosure on the expression of target proteins in cells; endogenous in cells; host or cells: human PBMCs (hPBMCs)

IKZF1 = target: T3, IKZF1 (Homo sapiens, UniProt Q13422+Q96SW2); test: Western-blot assay, substrate protein degradation in hPBMCs: IKZF1
T3 construct: effects of the compounds of the present disclosure on the expression of target proteins in cells; endogenous in cells; host or cells: human PBMCs (hPBMCs)

WEE1 = target: T4, WEE1 (Homo sapiens, UniProt P30291+Q96SW2); test: Western-blot assay, substrate protein degradation in hPBMCs: WEE1
T4 construct: effects of the compounds of the present disclosure on the expression of target proteins in cells; endogenous in cells; host or cells: human PBMCs (hPBMCs)

GSPT1 = target: T5, GSPT1 (Homo sapiens, UniProt P15170+Q96SW2); test: Western-blot assay, substrate protein degradation in hPBMCs: GSPT1
T5 construct: effects of the compounds of the present disclosure on the expression of target proteins in cells; endogenous in cells; host or cells: human PBMCs (hPBMCs)

IKZF2 = target: T6, IKZF2 (Homo sapiens, UniProt Q96SW2+Q9UKS7); test: Western-blot assay, substrate protein degradation in hPBMCs: IKZF2
T6 construct: effects of the compounds of the present disclosure on the expression of target proteins in cells; endogenous in cells; host or cells: human PBMCs (hPBMCs)
T6 sequence (Q9UKS7 whole entry): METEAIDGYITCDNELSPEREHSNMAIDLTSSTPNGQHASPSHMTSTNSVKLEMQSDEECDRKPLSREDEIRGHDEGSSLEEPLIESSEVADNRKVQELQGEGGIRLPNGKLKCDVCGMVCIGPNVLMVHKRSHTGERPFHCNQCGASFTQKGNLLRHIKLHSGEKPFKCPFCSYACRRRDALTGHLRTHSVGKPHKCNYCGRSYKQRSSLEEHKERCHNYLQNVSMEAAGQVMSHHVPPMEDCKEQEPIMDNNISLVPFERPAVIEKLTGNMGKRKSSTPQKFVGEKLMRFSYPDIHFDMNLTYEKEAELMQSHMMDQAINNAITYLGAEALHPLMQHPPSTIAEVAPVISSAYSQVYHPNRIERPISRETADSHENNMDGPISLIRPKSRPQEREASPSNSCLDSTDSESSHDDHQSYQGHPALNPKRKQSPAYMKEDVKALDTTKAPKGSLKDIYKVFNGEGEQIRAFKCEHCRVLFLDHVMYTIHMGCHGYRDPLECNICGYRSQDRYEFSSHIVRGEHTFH
T6 sequence (Q96SW2 whole entry): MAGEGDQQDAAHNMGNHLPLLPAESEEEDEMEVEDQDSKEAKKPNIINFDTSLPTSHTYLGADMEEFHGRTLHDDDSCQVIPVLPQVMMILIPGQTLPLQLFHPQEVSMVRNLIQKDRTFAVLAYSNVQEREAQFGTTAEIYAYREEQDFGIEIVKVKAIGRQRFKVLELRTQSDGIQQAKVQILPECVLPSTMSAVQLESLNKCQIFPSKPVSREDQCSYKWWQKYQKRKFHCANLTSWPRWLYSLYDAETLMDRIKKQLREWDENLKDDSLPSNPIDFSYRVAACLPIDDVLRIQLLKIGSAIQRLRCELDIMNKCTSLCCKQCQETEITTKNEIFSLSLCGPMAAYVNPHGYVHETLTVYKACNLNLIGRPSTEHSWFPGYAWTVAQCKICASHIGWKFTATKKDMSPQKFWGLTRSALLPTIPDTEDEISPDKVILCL
T6 sequence (Q16531 whole entry partner): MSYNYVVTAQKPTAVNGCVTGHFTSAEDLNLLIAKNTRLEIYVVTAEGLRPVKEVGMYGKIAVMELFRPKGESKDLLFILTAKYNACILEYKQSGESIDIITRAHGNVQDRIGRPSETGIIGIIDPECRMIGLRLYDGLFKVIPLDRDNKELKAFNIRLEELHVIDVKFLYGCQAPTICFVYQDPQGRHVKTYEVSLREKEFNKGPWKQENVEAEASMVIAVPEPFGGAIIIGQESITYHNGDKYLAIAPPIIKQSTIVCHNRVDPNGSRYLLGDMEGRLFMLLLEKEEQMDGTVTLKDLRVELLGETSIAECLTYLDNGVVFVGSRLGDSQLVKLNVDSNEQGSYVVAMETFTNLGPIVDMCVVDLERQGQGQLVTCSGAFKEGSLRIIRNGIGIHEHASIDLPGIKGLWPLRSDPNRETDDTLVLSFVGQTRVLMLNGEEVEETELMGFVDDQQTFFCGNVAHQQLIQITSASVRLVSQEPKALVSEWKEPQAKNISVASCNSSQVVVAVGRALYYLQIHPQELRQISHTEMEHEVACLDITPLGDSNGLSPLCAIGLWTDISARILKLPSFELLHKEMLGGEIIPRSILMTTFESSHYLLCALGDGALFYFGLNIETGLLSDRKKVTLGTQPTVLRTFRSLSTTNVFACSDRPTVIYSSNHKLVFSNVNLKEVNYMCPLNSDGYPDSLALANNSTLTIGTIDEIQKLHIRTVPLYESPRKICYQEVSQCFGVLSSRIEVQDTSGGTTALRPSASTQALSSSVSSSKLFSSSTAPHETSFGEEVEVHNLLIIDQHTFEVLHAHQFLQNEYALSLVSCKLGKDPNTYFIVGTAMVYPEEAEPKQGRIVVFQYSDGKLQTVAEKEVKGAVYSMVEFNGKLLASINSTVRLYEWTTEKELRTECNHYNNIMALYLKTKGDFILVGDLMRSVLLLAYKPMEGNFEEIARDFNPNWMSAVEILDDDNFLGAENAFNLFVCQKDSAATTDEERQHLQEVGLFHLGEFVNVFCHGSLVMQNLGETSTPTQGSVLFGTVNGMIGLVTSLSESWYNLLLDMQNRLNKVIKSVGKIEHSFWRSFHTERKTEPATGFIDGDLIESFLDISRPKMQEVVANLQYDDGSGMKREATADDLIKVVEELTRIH

T4 sequence (P30291 whole entry): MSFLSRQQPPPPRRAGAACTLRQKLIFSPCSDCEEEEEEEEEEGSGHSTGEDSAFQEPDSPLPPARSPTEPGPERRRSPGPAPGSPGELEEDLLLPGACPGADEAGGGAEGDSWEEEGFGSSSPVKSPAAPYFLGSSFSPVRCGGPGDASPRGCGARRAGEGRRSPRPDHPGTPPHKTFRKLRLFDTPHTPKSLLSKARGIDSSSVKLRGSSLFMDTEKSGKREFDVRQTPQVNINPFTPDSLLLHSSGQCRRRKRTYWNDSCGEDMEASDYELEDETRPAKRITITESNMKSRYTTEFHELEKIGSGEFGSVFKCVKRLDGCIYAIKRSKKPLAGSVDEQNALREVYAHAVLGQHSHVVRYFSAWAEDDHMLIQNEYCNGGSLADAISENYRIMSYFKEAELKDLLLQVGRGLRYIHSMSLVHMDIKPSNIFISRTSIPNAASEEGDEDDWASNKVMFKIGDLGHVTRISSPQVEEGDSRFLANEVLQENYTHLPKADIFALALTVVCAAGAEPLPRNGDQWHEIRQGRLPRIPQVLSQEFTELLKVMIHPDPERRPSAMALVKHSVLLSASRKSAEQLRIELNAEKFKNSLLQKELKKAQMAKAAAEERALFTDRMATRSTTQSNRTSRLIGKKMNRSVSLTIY
T4 sequence (Q96SW2 whole entry): as the sequence (Q96SW2 whole entry) above
T4 sequence (Q16531 whole entry partner): as the sequence (Q16531 whole entry partner) above
T1 sequence (P48729 whole entry): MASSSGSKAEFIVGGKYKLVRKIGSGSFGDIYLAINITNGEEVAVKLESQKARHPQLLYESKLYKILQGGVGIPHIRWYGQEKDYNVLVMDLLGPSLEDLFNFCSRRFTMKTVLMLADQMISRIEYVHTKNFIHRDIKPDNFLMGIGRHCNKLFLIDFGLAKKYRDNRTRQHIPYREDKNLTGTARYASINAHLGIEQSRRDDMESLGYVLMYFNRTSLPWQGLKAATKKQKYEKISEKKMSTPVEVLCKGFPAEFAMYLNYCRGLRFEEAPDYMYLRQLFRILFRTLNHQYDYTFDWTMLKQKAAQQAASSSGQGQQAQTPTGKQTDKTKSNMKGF
T1 sequence (Q96SW2 whole entry): as the sequence (Q96SW2 whole entry) above
T1 sequence (Q16531 whole entry partner): as the sequence (Q16531 whole entry partner) above
T3 sequence (Q13422 whole entry): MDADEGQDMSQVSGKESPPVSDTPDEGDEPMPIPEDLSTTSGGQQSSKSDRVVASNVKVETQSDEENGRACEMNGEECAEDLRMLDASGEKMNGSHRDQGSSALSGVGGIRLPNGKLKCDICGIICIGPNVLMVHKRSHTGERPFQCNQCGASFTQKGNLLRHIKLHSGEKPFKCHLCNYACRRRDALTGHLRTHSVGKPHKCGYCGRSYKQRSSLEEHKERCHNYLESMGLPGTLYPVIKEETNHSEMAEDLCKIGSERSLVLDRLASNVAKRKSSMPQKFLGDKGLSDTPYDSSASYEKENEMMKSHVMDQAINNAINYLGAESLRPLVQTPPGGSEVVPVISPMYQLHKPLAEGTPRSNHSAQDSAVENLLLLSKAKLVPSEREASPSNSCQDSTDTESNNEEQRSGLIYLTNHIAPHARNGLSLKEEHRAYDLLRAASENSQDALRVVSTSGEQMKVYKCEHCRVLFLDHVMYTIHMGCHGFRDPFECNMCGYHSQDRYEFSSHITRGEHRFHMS
T3 sequence (Q96SW2 whole entry): as the sequence (Q96SW2 whole entry) above
T3 sequence (Q16531 whole entry partner): as the sequence (Q16531 whole entry partner) above
T5 sequence (P15170 whole entry): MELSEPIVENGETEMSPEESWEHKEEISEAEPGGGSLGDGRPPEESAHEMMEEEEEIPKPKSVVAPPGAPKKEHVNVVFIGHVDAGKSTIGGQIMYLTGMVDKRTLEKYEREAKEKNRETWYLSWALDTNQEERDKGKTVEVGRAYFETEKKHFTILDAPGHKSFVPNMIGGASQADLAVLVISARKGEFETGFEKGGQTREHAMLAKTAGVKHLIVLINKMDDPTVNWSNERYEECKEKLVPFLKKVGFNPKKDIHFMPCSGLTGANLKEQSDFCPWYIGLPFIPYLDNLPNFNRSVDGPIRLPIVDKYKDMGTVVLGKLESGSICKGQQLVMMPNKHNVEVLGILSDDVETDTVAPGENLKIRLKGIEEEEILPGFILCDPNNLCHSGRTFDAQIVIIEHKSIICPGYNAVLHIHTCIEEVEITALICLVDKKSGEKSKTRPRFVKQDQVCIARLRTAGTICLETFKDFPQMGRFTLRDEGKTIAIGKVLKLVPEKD
T5 sequence (Q96SW2 whole entry): as the sequence (Q96SW2 whole entry) above
T5 sequence (Q16531 whole entry partner): as the sequence (Q16531 whole entry partner) above

Row | SMILES | CK1α substrate protein remaining % (CK1α) | IKZF3 substrate protein remaining % (IKZF3) | IKZF1 substrate protein remaining % (IKZF1) | WEE1 substrate protein remaining % (WEE1) | GSPT1 substrate protein remaining % (GSPT1) | IKZF2 substrate protein remaining % (IKZF2)
1 | O=C1CCN(N2Cc3cc(CN4CCN(c5ccc(Cl)cc5Cl)CC4)ccc3C2=O)C(=O)N1 [GT-06772, 1-(5-((4-(2,4-dichlorophenyl)piperazin-1-yl)methyl)-1-oxoisoindolin-2-yl)dihydropyrimidine-2,4(1H,3H)-dione] | A ("A" is defined as 0% ≤ substrate protein remaining % ≤ 80%) | A ("A" is defined as 0% ≤ substrate protein remaining % ≤ 80%) | B ("B" is defined as 80%< substrate protein remaining %≤ 100%) | A ("A" is defined as 0% ≤ substrate protein remaining % ≤ 80%) | A ("A" is defined as 0% ≤ substrate protein remaining % ≤ 80%) | A ("A" is defined as 0% ≤ substrate protein remaining % ≤ 80%)
2 | O=C1CCN(N2Cc3cc(CN4CCN(c5c(Cl)cccc5Cl)CC4)ccc3C2=O)C(=O)N1 [GT-06774, 1-(5-((4-(2,6-dichlorophenyl)piperazin-1-yl)methyl)-1-oxoisoindolin-2-yl)dihydropyrimidine-2,4(1H,3H)-dione] | A ("A" is defined as 0% ≤ substrate protein remaining % ≤ 80%) | A ("A" is defined as 0% ≤ substrate protein remaining % ≤ 80%) | B ("B" is defined as 80%< substrate protein remaining %≤ 100%) | B ("B" is defined as 80%< substrate protein remaining %≤ 100%) | A ("A" is defined as 0% ≤ substrate protein remaining % ≤ 80%) | A ("A" is defined as 0% ≤ substrate protein remaining % ≤ 80%)
3 | O=C1CCN(N2Cc3cc(CN4CCN(c5ccc(Cl)c(Cl)c5)CC4)ccc3C2=O)C(=O)N1 [GT-06775, 1-(5-((4-(3,4-dichlorophenyl)piperazin-1-yl)methyl)-1-oxoisoindolin-2-yl)dihydropyrimidine-2,4(1H,3H)-dione] | A ("A" is defined as 0% ≤ substrate protein remaining % ≤ 80%) | A ("A" is defined as 0% ≤ substrate protein remaining % ≤ 80%) | B ("B" is defined as 80%< substrate protein remaining %≤ 100%) | B ("B" is defined as 80%< substrate protein remaining %≤ 100%) | A ("A" is defined as 0% ≤ substrate protein remaining % ≤ 80%) | A ("A" is defined as 0% ≤ substrate protein remaining % ≤ 80%)
4 | O=C1CCN(N2Cc3cc(CN4CCN(c5ccc(F)cc5F)CC4)ccc3C2=O)C(=O)N1 [GT-06778, 1-(5-((4-(2,4-difluorophenyl)piperazin-1-yl)methyl)-1-oxoisoindolin-2-yl)dihydropyrimidine-2,4(1H,3H)-dione] | A ("A" is defined as 0% ≤ substrate protein remaining % ≤ 80%) | B ("B" is defined as 80%< substrate protein remaining %≤ 100%) | B ("B" is defined as 80%< substrate protein remaining %≤ 100%) | B ("B" is defined as 80%< substrate protein remaining %≤ 100%) | A ("A" is defined as 0% ≤ substrate protein remaining % ≤ 80%) | B ("B" is defined as 80%< substrate protein remaining %≤ 100%)
5 | O=C1CCN(N2Cc3cc(CN4CCN(c5cc(F)ccc5F)CC4)ccc3C2=O)C(=O)N1 [GT-06779, 1-(5-((4-(2,5-difluorophenyl)piperazin-1-yl)methyl)-1-oxoisoindolin-2-yl)dihydropyrimidine-2,4(1H,3H)-dione] | A ("A" is defined as 0% ≤ substrate protein remaining % ≤ 80%) | B ("B" is defined as 80%< substrate protein remaining %≤ 100%) | B ("B" is defined as 80%< substrate protein remaining %≤ 100%) | B ("B" is defined as 80%< substrate protein remaining %≤ 100%) | B ("B" is defined as 80%< substrate protein remaining %≤ 100%) | B ("B" is defined as 80%< substrate protein remaining %≤ 100%)
6 | O=C1CCN(N2Cc3cc(CN4CCN(c5c(F)cccc5F)CC4)ccc3C2=O)C(=O)N1 [GT-06780, 1-(5-((4-(2,6-difluorophenyl)piperazin-1-yl)methyl)-1-oxoisoindolin-2-yl)dihydropyrimidine-2,4(1H,3H)-dione] | A ("A" is defined as 0% ≤ substrate protein remaining % ≤ 80%) | B ("B" is defined as 80%< substrate protein remaining %≤ 100%) | B ("B" is defined as 80%< substrate protein remaining %≤ 100%) | B ("B" is defined as 80%< substrate protein remaining %≤ 100%) | B ("B" is defined as 80%< substrate protein remaining %≤ 100%) | B ("B" is defined as 80%< substrate protein remaining %≤ 100%)
7 | O=C1CCN(N2Cc3cc(CN4CCN(c5ccc(F)c(F)c5)CC4)ccc3C2=O)C(=O)N1 [GT-06781, 1-(5-((4-(3,4-difluorophenyl)piperazin-1-yl)methyl)-1-oxoisoindolin-2-yl)dihydropyrimidine-2,4(1H,3H)-dione] | A ("A" is defined as 0% ≤ substrate protein remaining % ≤ 80%) | B ("B" is defined as 80%< substrate protein remaining %≤ 100%) | B ("B" is defined as 80%< substrate protein remaining %≤ 100%) | B ("B" is defined as 80%< substrate protein remaining %≤ 100%) | A ("A" is defined as 0% ≤ substrate protein remaining % ≤ 80%) | B ("B" is defined as 80%< substrate protein remaining %≤ 100%)
8 | O=C1CCN(N2Cc3cc(CN4CCN(c5cc(F)cc(F)c5)CC4)ccc3C2=O)C(=O)N1 [GT-06782, 1-(5-((4-(3,5-difluorophenyl)piperazin-1-yl)methyl)-1-oxoisoindolin-2-yl)dihydropyrimidine-2,4(1H,3H)-dione] | A ("A" is defined as 0% ≤ substrate protein remaining % ≤ 80%) | B ("B" is defined as 80%< substrate protein remaining %≤ 100%) | B ("B" is defined as 80%< substrate protein remaining %≤ 100%) | B ("B" is defined as 80%< substrate protein remaining %≤ 100%) | A ("A" is defined as 0% ≤ substrate protein remaining % ≤ 80%) | B ("B" is defined as 80%< substrate protein remaining %≤ 100%)
9 | O=C1CCN(N2C(=O)c3ccc(CN4CCN(c5ccc(Cl)cc5)CC4)cc3C2=O)C(=O)N1 [GT-06783, 5-((4-(4-chlorophenyl)piperazin-1-yl)methyl)-2-(2,4-dioxotetrahydropyrimidin-1(2H)-yl)isoindoline-1,3-dione] | B ("B" is defined as 80%< substrate protein remaining %≤ 100%) | A ("A" is defined as 0% ≤ substrate protein remaining % ≤ 80%) | B ("B" is defined as 80%< substrate protein remaining %≤ 100%) | B ("B" is defined as 80%< substrate protein remaining %≤ 100%) | B ("B" is defined as 80%< substrate protein remaining %≤ 100%) | B ("B" is defined as 80%< substrate protein remaining %≤ 100%)
10 | O=C1CCN(N2C(=O)c3ccc(CN4CCN(c5ccc(Br)cc5)CC4)cc3C2=O)C(=O)N1 [GT-06784, 5-((4-(4-bromophenyl)piperazin-1-yl)methyl)-2-(2,4-dioxotetrahydropyrimidin-1(2H)-yl)isoindoline-1,3-dione] | A ("A" is defined as 0% ≤ substrate protein remaining % ≤ 80%) | B ("B" is defined as 80%< substrate protein remaining %≤ 100%) | B ("B" is defined as 80%< substrate protein remaining %≤ 100%) | B ("B" is defined as 80%< substrate protein remaining %≤ 100%) | B ("B" is defined as 80%< substrate protein remaining %≤ 100%) | B ("B" is defined as 80%< substrate protein remaining %≤ 100%)
11 | O=C1CCN(N2C(=O)c3ccc(CN4CCN(c5cccc(F)c5F)CC4)cc3C2=O)C(=O)N1 [GT-06793, 5-((4-(2,3-difluorophenyl)piperazin-1-yl)methyl)-2-(2,4-dioxotetrahydropyrimidin-1(2H)-yl)isoindoline-1,3-dione] | B ("B" is defined as 80%< substrate protein remaining %≤ 100%) | B ("B" is defined as 80%< substrate protein remaining %≤ 100%) | B ("B" is defined as 80%< substrate protein remaining %≤ 100%) | B ("B" is defined as 80%< substrate protein remaining %≤ 100%) | B ("B" is defined as 80%< substrate protein remaining %≤ 100%) | A ("A" is defined as 0% ≤ substrate protein remaining % ≤ 80%)
12 | O=C1CCN(N2C(=O)c3ccc(CN4CCN(c5c(F)cccc5F)CC4)cc3C2=O)C(=O)N1 [GT-06796, 5-((4-(2,6-difluorophenyl)piperazin-1-yl)methyl)-2-(2,4-dioxotetrahydropyrimidin-1(2H)-yl)isoindoline-1,3-dione] | B ("B" is defined as 80%< substrate protein remaining %≤ 100%) | B ("B" is defined as 80%< substrate protein remaining %≤ 100%) | B ("B" is defined as 80%< substrate protein remaining %≤ 100%) | A ("A" is defined as 0% ≤ substrate protein remaining % ≤ 80%) | B ("B" is defined as 80%< substrate protein remaining %≤ 100%) | B ("B" is defined as 80%< substrate protein remaining %≤ 100%)
